The source of these data is patent publication US20090012103A1, “SUBSTITUTED HETEROCYCLIC COMPOUNDS” (priority 2007, published 2009).

SMILES strings stand for the structures.

Series [1] addresses T1, wild-type human cardiac sodium channel, hNav1.5 (Homo sapiens, UniProt Q14524). Kind of series: Peak INa screening assay (tonic block TB and use-dependent block UDB of peak sodium current). The format is cell-based. The following applies: compound at 10 μM.
For a further series, the target named is hERG potassium channel (Homo sapiens, UniProt Q12809). Description: hERG screening assay (PatchXpress patch clamp, CHO cell line).
Series [2] addresses T1, wild-type human cardiac sodium channel, hNav1.5. Description: Late INa screening assay (late sodium current, PatchXpress whole cell patch clamp). The following applies: compound at 10 μM; read-out: Late INa % blk. It is filed as cell-based.
The mark [3] stands for this setting: tonic block, read-out: Tonic Peak INa % blk.
Setting [4] is: use-dependent block, read-out: UDB Peak INa % blk.

T1 sequence (Q14524 whole entry): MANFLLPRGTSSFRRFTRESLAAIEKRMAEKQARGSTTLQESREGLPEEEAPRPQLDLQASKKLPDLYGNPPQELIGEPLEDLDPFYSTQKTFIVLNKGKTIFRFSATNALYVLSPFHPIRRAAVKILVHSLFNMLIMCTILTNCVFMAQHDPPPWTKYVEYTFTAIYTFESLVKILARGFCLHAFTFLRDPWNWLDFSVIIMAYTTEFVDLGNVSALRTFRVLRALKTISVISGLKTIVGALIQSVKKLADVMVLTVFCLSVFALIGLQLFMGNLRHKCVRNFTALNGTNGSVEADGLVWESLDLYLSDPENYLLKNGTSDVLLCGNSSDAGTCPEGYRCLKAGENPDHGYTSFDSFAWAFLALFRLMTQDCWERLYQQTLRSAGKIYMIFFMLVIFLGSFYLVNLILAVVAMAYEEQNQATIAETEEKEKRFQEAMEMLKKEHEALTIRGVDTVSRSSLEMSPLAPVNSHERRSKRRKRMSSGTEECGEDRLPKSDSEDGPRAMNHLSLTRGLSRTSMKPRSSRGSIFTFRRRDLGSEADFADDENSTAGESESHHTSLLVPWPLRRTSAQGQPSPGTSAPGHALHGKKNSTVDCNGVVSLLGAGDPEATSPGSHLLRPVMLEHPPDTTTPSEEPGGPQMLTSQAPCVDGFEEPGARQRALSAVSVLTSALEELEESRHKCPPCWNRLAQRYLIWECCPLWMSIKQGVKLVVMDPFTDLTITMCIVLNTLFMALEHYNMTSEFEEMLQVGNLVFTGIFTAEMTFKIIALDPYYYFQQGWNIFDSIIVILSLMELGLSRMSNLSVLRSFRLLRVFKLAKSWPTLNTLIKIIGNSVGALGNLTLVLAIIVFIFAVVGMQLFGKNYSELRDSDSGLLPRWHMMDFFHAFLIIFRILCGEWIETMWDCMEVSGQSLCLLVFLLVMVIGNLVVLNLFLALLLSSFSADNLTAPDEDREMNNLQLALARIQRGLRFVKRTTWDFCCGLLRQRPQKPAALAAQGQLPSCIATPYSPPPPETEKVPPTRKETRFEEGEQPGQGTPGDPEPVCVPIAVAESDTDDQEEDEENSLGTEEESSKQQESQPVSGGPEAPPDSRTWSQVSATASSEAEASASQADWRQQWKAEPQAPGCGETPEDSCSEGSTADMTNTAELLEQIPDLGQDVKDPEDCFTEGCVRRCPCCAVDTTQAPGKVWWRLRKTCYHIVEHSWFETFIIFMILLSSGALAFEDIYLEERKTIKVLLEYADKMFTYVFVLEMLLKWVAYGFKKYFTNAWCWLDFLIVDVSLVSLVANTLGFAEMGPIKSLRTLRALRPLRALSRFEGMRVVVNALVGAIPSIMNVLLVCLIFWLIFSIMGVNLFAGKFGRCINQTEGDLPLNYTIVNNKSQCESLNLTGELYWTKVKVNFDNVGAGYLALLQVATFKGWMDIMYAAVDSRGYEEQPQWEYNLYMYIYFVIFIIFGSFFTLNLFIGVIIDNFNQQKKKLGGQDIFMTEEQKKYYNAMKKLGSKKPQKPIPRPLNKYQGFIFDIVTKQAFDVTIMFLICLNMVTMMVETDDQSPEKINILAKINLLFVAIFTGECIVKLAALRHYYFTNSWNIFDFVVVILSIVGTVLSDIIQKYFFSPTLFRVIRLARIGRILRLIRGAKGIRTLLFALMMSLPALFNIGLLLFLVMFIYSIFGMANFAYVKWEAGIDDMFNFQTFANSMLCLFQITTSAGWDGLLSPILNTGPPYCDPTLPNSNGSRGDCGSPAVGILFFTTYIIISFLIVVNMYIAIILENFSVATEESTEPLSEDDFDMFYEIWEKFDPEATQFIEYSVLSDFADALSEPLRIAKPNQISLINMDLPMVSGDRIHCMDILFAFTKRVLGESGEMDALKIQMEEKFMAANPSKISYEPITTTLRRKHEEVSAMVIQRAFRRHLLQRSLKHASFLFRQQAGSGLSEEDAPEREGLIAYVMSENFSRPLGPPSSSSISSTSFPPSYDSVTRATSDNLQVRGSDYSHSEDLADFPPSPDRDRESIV
Sequence of hERG potassium channel (Q12809 whole entry): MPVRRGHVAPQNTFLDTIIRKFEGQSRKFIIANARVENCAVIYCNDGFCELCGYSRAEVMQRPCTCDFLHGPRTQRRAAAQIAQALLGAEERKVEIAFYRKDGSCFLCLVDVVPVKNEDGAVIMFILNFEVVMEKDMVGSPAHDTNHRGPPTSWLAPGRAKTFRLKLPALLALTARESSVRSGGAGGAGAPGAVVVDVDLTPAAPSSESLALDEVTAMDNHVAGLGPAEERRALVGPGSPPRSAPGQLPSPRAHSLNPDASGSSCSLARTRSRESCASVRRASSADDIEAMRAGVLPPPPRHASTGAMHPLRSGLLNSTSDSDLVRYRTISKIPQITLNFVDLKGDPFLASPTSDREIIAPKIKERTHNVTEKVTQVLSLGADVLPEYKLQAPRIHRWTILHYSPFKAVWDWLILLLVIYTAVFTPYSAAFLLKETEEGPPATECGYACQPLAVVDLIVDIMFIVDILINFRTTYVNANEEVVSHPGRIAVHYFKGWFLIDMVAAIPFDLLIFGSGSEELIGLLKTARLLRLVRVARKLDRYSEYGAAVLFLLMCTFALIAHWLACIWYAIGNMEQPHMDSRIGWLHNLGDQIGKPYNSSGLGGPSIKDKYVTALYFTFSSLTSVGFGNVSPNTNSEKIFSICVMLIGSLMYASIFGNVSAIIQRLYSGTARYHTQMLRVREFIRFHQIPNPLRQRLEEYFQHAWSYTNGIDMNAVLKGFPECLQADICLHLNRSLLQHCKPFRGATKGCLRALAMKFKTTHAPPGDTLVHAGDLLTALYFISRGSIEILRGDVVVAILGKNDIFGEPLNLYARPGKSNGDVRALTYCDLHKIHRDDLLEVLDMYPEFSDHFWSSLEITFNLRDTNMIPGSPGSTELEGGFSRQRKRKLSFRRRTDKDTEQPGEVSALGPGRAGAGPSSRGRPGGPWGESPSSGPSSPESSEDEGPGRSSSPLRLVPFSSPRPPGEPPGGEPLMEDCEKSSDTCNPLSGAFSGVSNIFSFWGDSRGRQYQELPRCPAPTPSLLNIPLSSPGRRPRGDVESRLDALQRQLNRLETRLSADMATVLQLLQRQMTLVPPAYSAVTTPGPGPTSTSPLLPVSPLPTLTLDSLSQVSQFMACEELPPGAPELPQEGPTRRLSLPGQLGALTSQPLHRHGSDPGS
Experimental for hERG potassium channel: Compounds were screened to test their activity in blocking the hERG potassium channel. The hERG channel is heterologously expressed in a CHO (Chinese Hamster Ovary) cell line. Cells are maintained with standard tissue culture procedures and stable channel expression is maintained with 500 μg/ml G418 in the culture medium. Cells are harvested for testing on the PatchXpress automated patch clamp with Accumax (Innovative Cell Technologies, San Diego, Calif.) to isolate single cells.
The following solutions are used for electrophysiological recordings. The external solution contains: 2 mM CaCl2; 2 mM MgCl2; 4 mM KCl; 150 mM NaCl; 10 mM Glucose; 10 mM HEPES (pH 7.4 with 1M NaOH, osmolarity).
hERG channels are activated when the voltage is stepped to +20 mV from the −80 mV holding potential (see FIG. 3). During a 5 second step at +20 mV, the channels activate and then largely inactivate, so the currents are relatively small. Upon returning to −50 mV from +20 mV, hERG currents transiently become much larger as inactivation is rapidly removed and then the channel closes. The first step to −50 mV for 300 ms is used as a baseline for measuring the peak amplitude during the step to −50 mV after channel activation. The peak current at −50 mV is measured both under control conditions and after addition of compound.
All compounds are prepared as 10 mM DMSO stocks in glass vials. Stock solutions are mixed by vigorous vortexing and sonication for about 2 minutes at room temperature. For testing, compounds are diluted in glass vials using an intermediate dilution step in pure DMSO and then further diluted to working concentrations in external solution. Dilutions are prepared no longer than 20 minutes before use.
After achieving the whole-cell configuration, cells are monitored for 90 seconds to assess stability and washed with external solution for 66 seconds. The voltage protocol described above is then applied to the cells every 12 seconds and throughout the whole procedure. Only cells with stable recording parameters and meeting specified health criteria are allowed to enter the compound addition procedure.
External solution containing 0.1% DMSO (vehicle) is applied to the cells first to establish the control peak current amplitude. After allowing the current to stabilize for 3 to 5 minutes, 1 μM and then 10 μM test compounds are applied. Each compound concentration is added 4 times and cells are kept in test solution until the effect of the compound reaches steady state or for a maximum of 12 minutes. […] Washout in the external solution compartment is performed until the recovery of the current reaches steady state. Data are analyzed using DataXpress, Clampfit (Molecular Devices, Inc., Sunnyvale) and Origin 7 (Originlab Corp.)

On to `CC1=C(C(=O)OCc2ccccc2)C(c2ccccc2N2CCN(S(C)(=O)=O)CC2)n2nnnc2N1` (stereo not drawn) [PT-339, benzyl 5-methyl-7-(2-(4-(methylsulfonyl)piperazin-1-yl)phenyl)-4,7-dihydrotetrazolo[1,5-a]pyrimidine-6-carboxylate], for which the results for the inhibition at 10 µM in series [1] (setting [3]), in series [1] (setting [4]) and in series [2] were 22.2%, 9% and 51.4%, respectively. Moreover, the “hERG Patch Clamp hERG % blk” value is 11.5% at hERG potassium channel (1 μM) and 43.5% at hERG potassium channel (10 μM).

Take `CC1=C(C(=O)OCc2ccccc2)C(c2ccccc2N2CCN(C)CC2)n2nnnc2N1` (stereo not drawn) [PT-340, benzyl 5-methyl-7-(2-(4-methylpiperazin-1-yl)phenyl)-4,7-dihydrotetrazolo[1,5-a]pyrimidine-6-carboxylate]: the inhibition at 10 µM came out at 89.1% in series [1] (setting [3]) and 71.9% in series [2]. The “hERG Patch Clamp hERG % blk” value at hERG potassium channel (1 μM) came to 57.0%; on hERG potassium channel (10 μM), 93.5%.

Turning to `CC1=C(C(=O)OCc2ccccc2)C(c2ccccc2-c2cccc(NS(C)(=O)=O)c2)n2nnnc2N1` (stereo not drawn) [PT-348, benzyl 5-methyl-7-(3′-(methylsulfonamido)biphenyl-2-yl)-4,7-dihydrotetrazolo[1,5-a]pyrimidine-6-carboxylate], the values for the inhibition at 10 µM in series [1] (setting [3]) and in series [2] were 17.2% and 71.6%, respectively. The “hERG Patch Clamp hERG % blk” value at hERG potassium channel (1 μM) was determined as 10.0%; on hERG potassium channel (10 μM) it was 38.5%.

Regarding `CC1=C(C(=O)OCc2ccccc2)C(c2nccs2)c2cn[nH]c2N1` (stereo not drawn) [PT-369, benzyl 6-methyl-4-(thiazol-2-yl)-4,7-dihydro-1H-pyrazolo[3,4-b]pyridine-5-carboxylate], the inhibition at 10 µM in series [1] (setting [3]) came out at 26.3%; in series [1] (setting [4]) it was 13.5%; in series [2] it was 47.3%. In addition, the entries for the “hERG Patch Clamp hERG % blk” value on hERG potassium channel (1 μM) and on hERG potassium channel (10 μM) were 10.0% and 25.0%, respectively.

On to `COc1ccc(C2C(C(=O)OCc3ccccc3)=C(C)Nc3nnnn32)c(C#N)c1` (stereo not drawn) [PT-389, benzyl 7-(2-cyano-4-methoxyphenyl)-5-methyl-4,7-dihydrotetrazolo[1,5-a]pyrimidine-6-carboxylate], for which the inhibition at 10 µM in series [1] (setting [3]) was -1.6%; in series [2] it was 49.7%. Further, the “hERG Patch Clamp hERG % blk” value on hERG potassium channel (1 μM) is listed as 23.5%; on hERG potassium channel (10 μM), 69.0%.

Take `CCOC(=O)C1=C(C)NC(C)=C(C(=O)OCC)C1c1ccccc1Br` [PT-430, diethyl 4-(2-bromophenyl)-2,6-dimethyl-1,4-dihydropyridine-3,5-dicarboxylate]: the inhibition at 10 µM amounted to 91% in series [1] (setting [3]), 55.6% in series [1] (setting [4]) and 95.3% in series [2]. In addition, the “hERG Patch Clamp hERG % blk” value on hERG potassium channel (1 μM) is recorded as 10.0%; at hERG potassium channel (10 μM) it was 21.5%.

Regarding `CCOC(=O)C1=C(C)Nc2[nH]ncc2C1c1ccc(OC)cc1OCc1ccccc1` (stereo not drawn) [PT-445, ethyl 4-(2-(benzyloxy)-4-methoxyphenyl)-6-methyl-4,7-dihydro-1H-pyrazolo[3,4-b]pyridine-5-carboxylate], the inhibition at 10 µM in series [1] (setting [3]) worked out at 49.6%; in series [1] (setting [4]) it was 31.6%; in series [2] it was 62.2%. Also, the entries for the “hERG Patch Clamp hERG % blk” value on hERG potassium channel (1 μM) and at hERG potassium channel (10 μM) were 10.5% and 50.0%, respectively.

`CCOC(=O)C1=C(C)Nc2nnnn2C1c1cccc(Oc2ccccc2)c1` (stereo not drawn) [PT-464, ethyl 5-methyl-7-(3-phenoxyphenyl)-4,7-dihydrotetrazolo[1,5-a]pyrimidine-6-carboxylate]: the inhibition at 10 µM in series [1] (setting [3]) was determined as 2.7%; in series [2] it was 55.8%. For the same compound, the “hERG Patch Clamp hERG % blk” value at hERG potassium channel (1 μM) worked out at 11.0%; on hERG potassium channel (10 μM), 55.0%.
